In US20250221930A1, “A COMPOSITION COMPRISING LIPID NANOPARTICLES AND AN ANTIFUNGAL POLYENE” (INSTITUT NATIONAL DE LA SANTÉ ET DE LA RECHERCHE MÉDICALE, priority 2022, published 2025):
Read-outs that look alike come from different tables or passages of the source.

Key:
[1] = system: Twelve clinical isolates of Mucorales; assay: Checkerboard AmB MIC with surfactant in solution, statements over all isolates; format: cell-based
Method: Twelve clinical isolates of Mucorales identified by ARNr sequencing were used: Rhizopus arrhizus (5), Rhizopus microsporus (1), Lichtheimia corymbifera (3), Lichtheimia ramosa (1), Mucor circinelloides (1), Rhizomucor pusillus (1). Isolates were subcultured from frozen stocks (−80° C.) on 75 cm^3 flasks containing 15 mL of Sabouraud dextrose agar (Sigma-Aldrich, St. Quentin Fallavier, France) during 3 days at 37° C. Spores were collected by flooding the flask with 10 ml of sterile water. The suspensions were filtered on nylon filter (Millipore, Carrigtwohill, Ireland) with pore size of 11 μm to remove hyphal elements. The concentration of the spore suspensions was then adjusted in sterile water to obtain inocula of 2×10^5 spores/mL. […]
AmB minimum inhibitory concentrations (MIC) of each strain of Mucorales was measured in RPMI the presence of different concentrations of surfactant as described by the EUCAST broth microdilution antifungal susceptibility test methodology with modification for the checkerboard procedure. […]
In equation 1, MIC0 refers to the AmB MIC measured without surfactants and MIC∞ is the lowest AmB MIC measured in the presence of surfactant. The maximal ratio in AmB MIC decrease defined as maximal efficacy (Emax) was calculated as the ratio of MIC0/MIC∞. […] These parameters were evaluated using WinNonlin software (version 6.2, Certara, NJ, USA) as described by Chauzy et al.

[2] = system: Rhizopus arrhizus 1; assay: Checkerboard MICs of AmB, ISA and PEG15HS in solution; format: cell-based; details: RPMI, 24 h at 37° C.
Method: (§1) AmB minimum inhibitory concentrations (MIC) of each strain of Mucorales was measured in RPMI in the presence of different concentrations of ISA or PEG15HS as described by the EUCAST broth microdilution antifungal susceptibility test methodology with modification for the checkerboard procedure. Checkerboards were performed by adding 100 μL of two-fold dilutions of AmB (0.008 to 4 mg/L) and ISA (0.008 to 4 mg/L) or PEG15HS (0.04 to 2752 mg/L) in 96 well plates. One hundred microliters of a spore suspension at a concentration of 105 spores/mL were added to the wells, and the plates were incubated for 24 h at 37° C. […] Three experiments were performed for each strain.
(§2) AmB MIC of each strain of Mucorales was measured in RPMI in the presence of different concentrations of ISA and a constant concentration of PEG15HS (100 times the concentration of AmB) as described by the EUCAST broth microdilution antifungal susceptibility test methodology with modification for the checkerboard procedure. Checkerboards were performed by adding 100 μL of two-fold dilutions of AmB (0.008 to 4 mg/L)+PEG15HS (0.8 to 400 mg/L) and ISA (0.008 to 4 mg/L) in 96 well plates. One hundred microliters of a spore suspension at a concentration of 105 spores/mL were added to the wells, and the plates were incubated for 24 h at 37° C. […] Three experiments were performed for each strain. […]

[3] = system: human erythrocytes
Method: Human blood samples from different healthy volunteers was collected in EDTA tubes and centrifuged at 3000×g for 5 minutes. Plasma was removed and the erythrocytes were washed four times with 2 ml of 0.9% NaCl by centrifugation at 3000×g for 5 minutes.
Erythrocytes were suspended in PBS pH 7.4 and their concentration was adjusted to 5·10^8 cells/mL. Erythrocytes were then incubated with AmB solubilised as a solution or loaded in LNP for 1 hour at 37° C. under shaking, then centrifuged at 3000×g for 5 minutes. Then, 100 μL of the supernatant were transferred in a flat-bottomed transparent 96-well plate and the absorbance was measured at 540 nm. Untreated erythrocytes dispersed in PBS were used as a negative control, and erythrocytes treated by 1% (v/v) of TritonX-100 were used as a positive control. Percentage of hemolysis was calculated using the following equation: 100*(Asample−Acontrol)/(aTritonX−100−Anegative), where Asample is the absorbance measured for each experimental conditions, Anegative and aTritonX-100 are the absorbance of negative and positive controls, respectively.
Sterile Dulbelcc”s phosphate buffered saline (DDPBS, Dominique Dutscher, Bernolsheim, France) pH 7 was also used as a medium to measure the hemolytic activity of AmB.

[4] = system: Lichtheimia corymbifera; assay: Checkerboard AmB MIC with surfactant in solution, inhibitory Emax model; format: cell-based
Method: (§3) Twelve clinical isolates of Mucorales identified by ARNr sequencing were used: Rhizopus arrhizus (5), Rhizopus microsporus (1), Lichtheimia corymbifera (3), Lichtheimia ramosa (1), Mucor circinelloides (1), Rhizomucor pusillus (1). Isolates were subcultured from frozen stocks (−80° C.) on 75 cm^3 flasks containing 15 mL of Sabouraud dextrose agar (Sigma-Aldrich, St. Quentin Fallavier, France) during 3 days at 37° C. Spores were collected by flooding the flask with 10 ml of sterile water. The suspensions were filtered on nylon filter (Millipore, Carrigtwohill, Ireland) with pore size of 11 μm to remove hyphal elements. The concentration of the spore suspensions was then adjusted in sterile water to obtain inocula of 2×10^5 spores/mL.
(§4) AmB powder (Sigma-Aldrich) was dissolved in dimethyl sulfoxide to get a stock solution at 8192 mg/L stored at −80° C. for six months. On the day of use, AmB and freshly made surfactant solutions (in RPMI or PBS) were diluted in the same medium (RPMI or PBS) to obtain desired concentrations. Surfactants used (polyethylene glycol (15)-hydroxystearate (also named Solutol® HS15 or Kolliphor® HS 15, or Macrogol 15 Hydroxystearate); polyoxyethylene (10) stearyl ether (Brij® S10); polyoxyethylene (20) stearyl ether (Brij® S20); polyoxyethylene (20) oleyl ether (Brij® 020); and polyoxyethylene (10) cetyl ether (Brij® C10)), which have their chemical structure presented in FIG. 7, were purchased from Sigma-Aldrich.
as §1, with “RPMI” for “RPMI in”, “surfactant” for “ISA or PEG15HS”, “surfactant solutions” for “ISA (0.008 to 4 mg/L) or PEG15HS”
(§5) An inhibitory Emax model (Equation 1) developed by Chauzy et al. (Chauzy, A.; Buyck, J.; de Jonge, B. L. M.; Marchand, S.; Grégoire, N.; Couet, W. Pharmacodynamic Modelling of β-Lactam/β-Lactamase Inhibitor Checkerboard Data: Illustration with Aztreonam-Avibactam. Clin. Microbiol. Infect. 2019, 25, 515.e1-515.e4, doi: 10.1016/j.cmi.2018.11.025) to evaluate the enhancing effect of non-antibiotics molecules on the efficacy of antibiotic against bacteria was used here to describe the average decrease in AmB MIC values (MICsurf) against various Mucorales strains in relation to surfactant concentrations (Csurf).
(§6) In equation 1, MIC0 refers to the AmB MIC measured without surfactants and MIC∞ is the lowest AmB MIC measured in the presence of surfactant. The maximal ratio in AmB MIC decrease defined as maximal efficacy (Emax) was calculated as the ratio of MIC0/MIC∞. EC50 is the concentration of surfactant producing 50% of the Emax and characterizes the potency of the surfactants. These parameters were evaluated using WinNonlin software (version 6.2, Certara, NJ, USA) as described by Chauzy et al.

[5] = system: Rhizopus arrhizus; assay: as above; format: cell-based
Method: as §3, §4
as §1, with “RPMI” for “RPMI in”, “surfactant” for “ISA or PEG15HS”, “surfactant solutions” for “ISA (0.008 to 4 mg/L) or PEG15HS”
as §5, §6

[6] = system: Mucor circinelloides; assay: as above; format: cell-based; details: M. circinelloides
Method: as §3, §4
as §1, with “RPMI” for “RPMI in”, “surfactant” for “ISA or PEG15HS”, “surfactant solutions” for “ISA (0.008 to 4 mg/L) or PEG15HS”
as §5, §6

[7] = system: Rhizomucor pusillus; assay: as above; format: cell-based; details: R. pusillus
Method: as §3, §4
as §1, with “RPMI” for “RPMI in”, “surfactant” for “ISA or PEG15HS”, “surfactant solutions” for “ISA (0.008 to 4 mg/L) or PEG15HS”
as §5, §6

[8] = system: Lichtheimia ramosa; assay: as above; format: cell-based; details: L. ramosa
Method: as §3, §4
as §1, with “RPMI” for “RPMI in”, “surfactant” for “ISA or PEG15HS”, “surfactant solutions” for “ISA (0.008 to 4 mg/L) or PEG15HS”
as §5, §6

[9] = system: Rhizopus microsporus; assay: as above; format: cell-based; details: R. microsporus
Method: as §3, §4
as §1, with “RPMI” for “RPMI in”, “surfactant” for “ISA or PEG15HS”, “surfactant solutions” for “ISA (0.008 to 4 mg/L) or PEG15HS”
as §5, §6

[10] = system: L. corymbifera; assay: Checkerboard MICs of AmB, ISA and PEG15HS in solution; format: cell-based, Lichtheimia corymbifera; details: RPMI, 24 h at 37° C.
Method: as §1, §2

Compound: C[C@@H]1[C@H](O)[C@@H](C)/C=C/C=C/C=C/C=C/C=C/C=C/C=C/[C@H](O[C@@H]2O[C@H](C)[C@@H](O)[C@H](N)[C@@H]2O)C[C@@H]2O[C@](O)(C[C@@H](O)C[C@@H](O)[C@H](O)CC[C@@H](O)C[C@@H](O)CC(=O)O[C@H]1C)C[C@H](O)[C@H]2C(=O)O [AmB, amphotericin B]
- MIC (agent alone) [1]: less than 1 mg/L
- MIC of AmB [2]: 1 µg/mL
- hemolysis ([3]; in PBS, 5 to 15 mg/L of AmB): induce hemolysis
- hemolysis ([3]; in RPMI, AmB 15, 30 mg/L): induce hemolysis
- MIC0 (MIC of AmB in the absence of surfactant) ([4]; L. corymbifera 1): 0.36 µg/mL
- MIC0 (MIC of AmB in the absence of surfactant) ([4]; L. corymbifera 2): 0.06 µg/mL
- MIC0 (MIC of AmB in the absence of surfactant) ([4]; L. corymbifera 3): 0.25 µg/mL
- MIC0 (MIC of AmB in the absence of surfactant) ([5]; R. arrhizus 1): 0.28 µg/mL
- MIC0 (MIC of AmB in the absence of surfactant) ([5]; R. arrhizus 2): 0.44 µg/mL
- MIC0 (MIC of AmB in the absence of surfactant) ([5]; R. arrhizus 3): 0.59 µg/mL
- MIC0 (MIC of AmB in the absence of surfactant) ([5]; R. arrhizus 4): 0.61 µg/mL
- MIC0 (MIC of AmB in the absence of surfactant) ([5]; R. arrhizus 5): 0.35 µg/mL
- MIC0 (MIC of AmB in the absence of surfactant) [6]: 0.19 µg/mL
- MIC0 (MIC of AmB in the absence of surfactant) [7]: 0.25 µg/mL
- MIC0 (MIC of AmB in the absence of surfactant) [8]: 0.51 µg/mL
- MIC0 (MIC of AmB in the absence of surfactant) [9]: 0.68 µg/mL
- MIC of AmB [10]: 1 µg/mL
